Literature values as cited in US20190011434A1, “METHODS TO DETERMINE CANCER TREATMENT USING ROBOTIC HIGH-THROUGHPUT DRUG SENSITIVITY TESTING” (AntiCancer, Inc., priority 2017, published 2019).

Key:
[1] = system: primary tumor and axillary lymph node metastasis from breast cancer patients; conditions: 30 patients; cutoff drug concentrations; 7 days incubation; p<0.05
[2] = system: head and neck squamous cell carcinoma (HNSCC) tumor specimens; conditions: 41 evaluated tumors; cisplatin 15 microg/mL or 5-fluorouracil 40 microg/mL; sensitivity = inhibition rate greater than 30%

Structure (SMILES) | Chemosensitivity of lymph node metastases compared with primary tumor [1] | Resistance in the HDRA (share of cases) [2]
CO[C@@]12[C@H](COC(N)=O)C3=C(C(=O)C(C)=C(N)C3=O)N1C[C@@H]1N[C@@H]12 [MMC, mitomycin C] | more resistant than the primary tumor | 
O=c1[nH]cc(F)c(=O)[nH]1 [5-fluorouracil] | more resistant than the primary tumor | 32%
COc1cccc2c1C(=O)c1c(O)c3c(c(O)c1C2=O)C[C@@](O)(C(=O)CO)C[C@@H]3O[C@H]1C[C@H](N)[C@H](O)[C@H](C)O1 [DOX, doxorubicin] | more resistant than the primary tumor | 
N.N.[Cl][Pt][Cl] [cisplatinum] | not | 32%
